Converted amounts (≈) assume the structure as drawn. Like-named read-outs stand apart in the source and are kept apart here. Marks after values point to notes of the source that are not given here.
Columns and labels:
physchem = details: thermodynamic from solid
[1] = Stability of the co-crystal as a solid and in water or solution; details: for Stability in water for 24 hours: 25° C., disintegration into its components
Protocol: Solubility was determined by adding approximately 0.5 mL of doubly distilled water to 19.1 mg of the substance to be measured. The resulting suspension was equilibrated in a temperature-controlled Eppendorf Thermomixer Comfort Shaker for 24 hours at 25° C. at a shaking rate of 500 rpm. The solid phase was recovered by filter centrifugation (0.1-μm PVDF membrane) and examined by FT-Raman spectroscopy. Concentrations in the filtrate (i.e., saturated solutions) or diluted solutions thereof were determined using the HPLC method disclosed herein. The pH of the saturated solution was determined with a Metrohm 713 pH meter.

[2] = Aqueous solubility, 24 h equilibration, HPLC of filtrate; assay type: physicochemical
Protocol: (§1) HPLC was carried out in a TSP instrument with a P4000 pump, an AS3000 autosampler, an SCM1000 degasser, a UV3000 detector, and PC1000 Version 4.1 software.
The pH of the corresponding saturated solution was 6.1. […] This may be due to chemical instability of dexlansoprazole in the solution environment.

[3] = Approximate solubility by manual dilution combined with visual observation; details: for solubility / Solubility (mg/mL): room temperature
[4] = Dynamic vapor sorption (DVS), hygroscopicity; assay type: physicochemical; details: for DVS weight gain at 85% relative humidity: 85% r.h.; for FT-Raman post-DVS compared with pre-DVS/reference (form change): after DVS cycle
Protocol: DVS was carried out in a Surface Measurement System DVS-1. The sample was placed on a platinum holder on top of a microbalance and allowed to equilibrate for 2 hours at 50% r.h. before starting the pre-defined humidity program: 50→95% r.h. (5%/h); 5 hours at 95% r.h., 95→0% r.h. (5%/h); 5 h at 0% r.h., then 0→50% r.h. (5%/h); and 2 hours at 50% r.h.
The hygroscopicity was classified based on the mass gain at 85% r.h. relative to the initial mass as follows: deliquescent (sufficient water adsorbed to form a liquid), very hygroscopic (mass increase of ≧15%), hygroscopic (mass increase <15% but ≧2%), slightly hygroscopic (mass increase <2% but ≧0.2%), or non-hygroscopic (mass increase <0.2%).
In order to examine the behavior of SP134-SBT-P26 in the presence of variable water vapor pressure, the sample was analyzed by isothermal DVS at 25° C. […] The sample was conditioned at 50% r.h. before starting a pre-defined humidity program with a scanning rate of 5% r.h. change per hour. Below 50% r.h. a small but continuous mass loss of the sample is observed (˜0.07%). This mass loss is in good accordance to the results of the TG-FTIR-measurement and Karl Fischer water content determination.
In order to examine the behavior of SP134-SBT-P27 in the presence of variable water vapor pressure, the sample was analyzed by isothermal DVS at 25° C. The sample was conditioned at 50% r.h. before starting a pre-defined humidity program with a scanning rate of 5% r.h. change per hour. Below 50% r.h. a small but continuous mass loss of the sample is observed (˜0.06%). This mass loss is in good accordance to the results of the TG-FTIR-measurement and Karl Fischer water content determination.

[5] = Kinetic solubility experiment in water; assay type: physicochemical
Protocol: as §1
A further experiment to evaluate the kinetic solubility was carried out. The maximum was reached already after 15 minutes and that the concentration in the solution remained constant for the duration of the experiment.

[6] = cited from earlier work
[7] = Approximate solubility tests in selected solvents; assay type: physicochemical; details: organic solvent or mixture, read-out: Solubility [S, mg/ml]
Text: A sample of dexlansoprazole sesquihydrate was characterized by FT-Raman spectroscopy, XRPD, ^1H-NMR and approximate solubility tests.
Accordingly, ethanol, ethyl acetate, acetonitrile, and THF were chosen as solvents for the co-crystal screening.

[8] = 1:1 EtOAc/DMSO (v/v), organic solvent or mixture
[9] = 1:1 EtOH/H2O (v/v), aqueous with cosolvent or surfactant or cyclodextrin
[10] = 2:1 EtOH/H2O + 5 vol.-% NH3 solution, aqueous with cosolvent or surfactant or cyclodextrin
[11] = 2:1 MeOH/H2O + 5 vol.-% NH3 solution, aqueous with cosolvent or surfactant or cyclodextrin
[12] = 2:1 MeOH/borax buffer, pH 9, aqueous with cosolvent or surfactant or cyclodextrin
[13] = 9:1 EtOAc/DMSO (v/v), organic solvent or mixture
[14] = DMSO, organic solvent or mixture
[15] = EtOAc, organic solvent or mixture
[16] = MeOH, organic solvent or mixture
[17] = isothermal DVS at 25° C., listed as SP134-SBT-P27

SMILES: OC[C@@H](O)[C@@H](O)[C@H](O)[C@@H](O)CO [Sorbitol, D-sorbitol]
- solubility (physchem; 1:1 DMSO/EtOH (v/v), 60 °C, organic solvent or mixture): > 102 mg/mL
- solubility (physchem; [8]): 125 to 250 mg/mL (≈ 686 to 1370 mM)
- solubility (physchem; 1:1 EtOAc/EtOH (v/v), 60 °C, organic solvent or mixture): 3 mg/mL (≈ 16.5 mM)
- solubility (physchem; [9]): ~160 mg/mL (≈ 878 mM)
- solubility (physchem; 1:2 EtOAc/EtOH (v/v), 60 °C, organic solvent or mixture): 6 mg/mL (≈ 32.9 mM)
- solubility (physchem; 1:3 DMSO/EtOH (v/v), 60 °C, organic solvent or mixture): 54 to 108 mg/mL (≈ 296 to 593 mM)
- solubility (physchem; 1:3 EtOAc/EtOH (v/v), 60 °C, organic solvent or mixture): 10 mg/mL (≈ 54.9 mM)
- solubility (physchem; 1:5 DMSO/EtOH (v/v), 60 °C, organic solvent or mixture): 39 to 59 mg/mL (≈ 214 to 324 mM)
- solubility (physchem; 1:5 EtOAc/EtOH (v/v), 60 °C, organic solvent or mixture): 11 mg/mL (≈ 60.4 mM)
- solubility (physchem; [10]): 125 to 250 mg/mL
- solubility (physchem; [11]): > 250 mg/mL
- solubility (physchem; [12]): > 250 mg/mL
- solubility (physchem; [13]): ~1 mg/mL (≈ 5.49 mM)
- solubility (physchem; [14]): > 200 mg/mL
- solubility (physchem; [15]): < 1 mg/mL
- solubility (physchem; [16]): ~13 mg/mL (≈ 71.4 mM)
- solubility (physchem; water): > 200 mg/mL

SMILES: Cc1c(OCC(F)(F)F)ccnc1C[S+]([O-])c1nc2ccccc2[nH]1.Cc1c(OCC(F)(F)F)ccnc1C[S+]([O-])c1nc2ccccc2[nH]1.OCC(O)C(O)C(O)C(O)CO.OCC(O)C(O)C(O)C(O)CO.OCC(O)C(O)C(O)C(O)CO (stereo not shown) [SP134-SBT-P7]
- Stability as a solid ([1]; solid): stable
- Stability in water for 24 hours [1]: solid form not stable in H2O for 24 h, disintegrates
- Stability in water for 24 hours ([1]; listed as dexlansoprazole/sorbitol co-crystal): not stable
- Solubility in water ([2]; 24 hours equilibration at 22° C., solid residue was free drug, so value corresponds to free drug): 0.18 mg/mL
- pH of the saturated solution ([2]; water, 24 hours equilibration): 6.1
- solubility ([3]; 1:1 EtOAc/DMSO): >200 mg/mL
- Solubility (mg/mL) ([3]; 1:1 EtOH/H2O): 50-100^a mg/mL
- solubility ([3]; 2:1 EtOH/H2O + 5 vol.-% NH3 solution): 60 to 100 mg/mL
- solubility ([3]; 2:1 MeOH/H2O + 5 vol.-% NH3 solution): 60 to 100 mg/mL
- Solubility (mg/mL) ([3]; 2:1 MeOH/borax buffer (pH = 9.0)): 45-65^a mg/mL
- solubility ([3]; 9:1 EtOAc/DMSO): ~10 mg/mL
- solubility ([3]; EtOAc): <1 mg/mL
- Solubility (mg/mL) ([3]; H2O): 0.25^a mg/mL
- Reversibility of DVS weight gain and loss [4]: reversible
- DVS weight loss at 0% r.h. relative to the starting weight ([4]; 0% r.h.): < 1 wt.-%
- DVS weight increase at 50% r.h. on desorption relative to the starting weight ([4]; 50% r.h. after lowering from 95% r.h.): ~1 wt. %
- DVS step in weight gain ([4]; 70-75% r.h.): ~4 wt.-%
- DVS weight gain at 85% relative humidity [4]: (~70-75% r.h.), gain of ~7 wt.-% at 85% r.h.;
- DVS weight gain at 85% relative humidity ([4]; listed as sorbitol co-crystal): ~7 wt.-%
- FT-Raman post-DVS compared with pre-DVS/reference (form change) [4]: no significant changes
- Hygroscopicity class ([4]; mass gain at 85% r.h. relative to the initial mass, listed as sorbitol co-crystal): hygroscopic (mass increase <15% but ≧2%)
- DVS weight gain at 95% relative humidity ([4]; r.h. raised from 50% to 95%): 20 wt.-%
- Solubility as a function of time, constant value reached ([5]; after 15 minutes): 0.25 mg/mL
- Kinetic solubility in water ([5]; 15 min): 0.25 mg dexlansoprazole per ml
- Kinetic solubility in water ([5]; 30 min): 0.26 mg dexlansoprazole per ml
- Kinetic solubility in water ([5]; 1 hour): 0.26 mg dexlansoprazole per ml
- Kinetic solubility in water ([5]; 2 hour): 0.24 mg dexlansoprazole per ml
- Kinetic solubility in water ([5]; 4 hrs.): 0.27 mg dexlansoprazole per ml
- Kinetic solubility in water ([5]; 8 hrs.): 0.27 mg dexlansoprazole per ml

SMILES: Cc1c(OCC(F)(F)F)ccnc1C[S@@+]([O-])c1nc2ccccc2[nH]1.OC[C@@H](O)[C@@H](O)[C@H](O)[C@@H](O)CO [SP134-SBT-P26]
- Approximate solubility ([3]; 1:3 DMSO/EtOH, 10° C.): 14 to 16 mg/mL
- Approximate solubility ([3]; 1:3 DMSO/EtOH, 40° C.): 50 to 63 mg/mL
- Approximate solubility ([3]; 1:4 DMSO/EtOH, 10° C.): 11.5 to 12.5 mg/mL
- Approximate solubility ([3]; 1:4 DMSO/EtOH, 40° C.): >37 mg/mL
- Approximate solubility ([3]; 1:5 DMSO/EtOH, 10° C.): 9.3 to 9.8 mg/mL
- Approximate solubility ([3]; 1:5 DMSO/EtOH, 40° C.): 17 to 23 mg/mL
- Solubility relative to sorbitol and dexlansoprazole ([3]; DMSO/EtOH, 40° C.): less soluble than sorbitol and dexlansoprazole
- FT-Raman post-DVS compared with pre-DVS/reference (form change) [4]: no phase transition
- DVS water uptake at about 85% r.h. relative to the mass at 0% r.h. ([4]; isothermal DVS at 25° C.): 0.12%
- DVS water uptake at about 85% r.h. relative to the mass at 0% r.h. [4, 17]: 0.08%
- DVS mass loss below 50% r.h. ([4]; isothermal DVS at 25° C.): ~0.07%
- DVS mass loss below 50% r.h. [4, 17]: ~0.06%
- Hygroscopicity class ([4]; isothermal DVS at 25° C., water uptake at about 85% r.h. relative to the mass at 0% r.h.): not hygroscopic

SMILES: Cc1c(OCC(F)(F)F)ccnc1C[S@@+]([O-])c1nc2ccccc2[nH]1 [Dexlansoprazole]
- Descriptive solubility ([6]; acetonitrile): soluble
- Descriptive solubility ([6]; dichloromethane): freely soluble
- Descriptive solubility ([6]; dimethyl formamide): freely soluble
- Descriptive solubility ([6]; ethanol): freely soluble
- Descriptive solubility ([6]; ether): slightly soluble
- Descriptive solubility ([6]; ethyl acetate): freely soluble
- Descriptive solubility ([6]; hexane): substantially insoluble
- Stability when exposed to light ([6]; light): stable
- Descriptive solubility ([6]; methanol): freely soluble
- Stability depending on pH conditions ([6]; neutral and alkaline vs acidic conditions): more stable in neutral and alkaline conditions than acidic conditions
- Descriptive solubility ([6]; water): very slightly soluble

SMILES: Cc1c(OCC(F)(F)F)ccnc1C[S@@+]([O-])c1nc2ccccc2[nH]1 [SP134-FD-P1, dexlansoprazole sesquihydrate, reference compound]
- solubility (physchem; [8]): > 200 mg/mL
- solubility (physchem; [9]): ~30 mg/mL
- solubility (physchem; [10]): 100 to 200 mg/mL
- solubility (physchem; [11]): 100 to 200 mg/mL
- solubility (physchem; [12]): 90 to 190 mg/mL
- solubility (physchem; [13]): > 200 mg/mL
- solubility (physchem; [14]): > 200 mg/mL
- solubility (physchem; [15]): > 20 mg/mL
- solubility (physchem; [16]): > 200 mg/mL
- solubility (physchem; ethanol, organic solvent or mixture): > 200 mg/mL
- solubility (physchem; water): < 1 mg/mL
- solubility ([7]; MEK): ~226 mg/mL
- solubility ([7]; THF): ~228 mg/mL
- solubility ([7]; acetone): ~230 mg/mL
- solubility ([7]; acetonitrile): ~210 mg/mL
- solubility ([7]; ethanol): ~228 mg/mL
- solubility ([7]; ethyl acetate): ~204 mg/mL
- solubility ([7]; methanol): ~204 mg/mL
